# According to patent US7432303B2, “Chalcone and its analogs as agents for the inhibition of angiogenesis and related disease states” (James and Emory University, priority 1999, dated 2008):
# System: SVR cells
# Assay: SVR cell assay: cell numbers counted at 48 hours, percent inhibition versus control
# Format: cell-based, murine
# Details: 10,000 SVR cells in 24 well dish, counted at 48 hours; for inhibition at 1 µg/mL / inhibition at 3 µg/mL / inhibition at 6 µg/mL / inhibition at 9 µg/mL: Mus musculus; for inhibition at 1 µg/mL / Percent Inhibition at a Specified Density (μg/ml): 1: 1 μg/ml; for inhibition at 1 µg/mL: read-out: Percent Inhibition at a Specified Density (μg/ml): 1; for inhibition at 3 µg/mL / Percent Inhibition at a Specified Density (μg/ml): 3: 3 μg/ml; for inhibition at 3 µg/mL: read-out: Percent Inhibition at a Specified Density (μg/ml): 3; for inhibition at 6 µg/mL / Percent Inhibition at a Specified Density (μg/ml): 6: 6 μg/ml; for inhibition at 6 µg/mL: read-out: Percent Inhibition at a Specified Density (μg/ml): 6; for Percent Inhibition at a Specified Density (μg/ml): 9 / inhibition at 9 µg/mL: 9 μg/ml; for inhibition at 9 µg/mL: read-out: Percent Inhibition at a Specified Density (μg/ml): 9
# Procedure: In the case of testing the anti-angiogenic/anti-cancer activity of compounds according to the present invention, an assay based on SVR cells may be employed. […] The cell numbers are counted and compared against controls. Percent inhibition is readily determined from the data obtained.
# 10,000 SVR cells were seeded in a 24 well dish [Arbiser, et al., J. Am. […] The cell numbers were counted at 48 hours.
Compound,inhibition at 1 µg/mL [%],inhibition at 3 µg/mL [%],inhibition at 6 µg/mL [%],Percent Inhibition at a Specified Density (μg/ml): 1 [%],Percent Inhibition at a Specified Density (μg/ml): 3 [%],Percent Inhibition at a Specified Density (μg/ml): 6 [%],Percent Inhibition at a Specified Density (μg/ml): 9 [%],inhibition at 9 µg/mL [%]
"Cc1ccc(/C=C/C(=O)c2ccc(Cl)cc2)cc1 [Compound 29, 4′-Chloro-4-methylchalcone]",29.9,40.2,58.5,–,–,–,–,–
"O=C1C(=C2C=CC=CN2)CCCC1=C1C=CC=CN1 [Compound 79, 2,6-Di(2-pyridylidene)cyclohexanone]",88.3,92.9,96.7,–,–,–,–,–
"Cc1ccc(C(=O)/C=C/c2ccccc2Cl)c(C)c1 [Compound 21, 2-Chloro-2′,4′-dimethylchalcone]",29.6,25.2,73.4,–,–,–,–,–
"O=C(C=Cc1ccccn1)c1ccccn1 [Compound 46, 1,3-Di(2-pyridyl)propenone]",–,–,–,0.0,53.4,85.2,–,–
"Cc1cccc(C)c1/C=C/C(=O)c1ccccc1 [Compound 23, 2,6-Dimethylchalcone]",47.7,57.9,89.6,–,–,–,–,–
"O=C(C=Cc1c(Cl)cccc1Cl)c1ccc2ccccc2c1 [Compound 59, 3-(2,6-Dichlorophenyl)-1-(2-naphthyl)propenone]",–,–,–,–,81.0,97.4,98.3,–
"O=C(C=Cc1ccccc1)c1ccc2ccccc2c1 [Compound 61, 1-(2-Naphthyl)-3-phenylpropenone]",–,–,–,–,92.2,94.7,96.0,–
"O=C(C=Cc1ccccn1)c1ccccc1 [Compound 47, 1-Phenyl-3-(2-pyridyl)propenone]",–,–,–,40.7,89.1,96.9,–,–
"O=C(/C=C/c1ccc(Cl)cc1)c1ccc(Cl)cc1 [Compound 19, 4,4′-Dichlorochalcone]",13.8,11.7,31.1,–,–,–,–,–
"COc1cccc(OC)c1/C=C/C(=O)c1ccccc1 [Compound 39, 2,6-Dimethoxychalcone]",31.8,56.4,60.8,–,–,–,–,–
"O=C(/C=C/c1ccc(OCc2ccccc2)cc1)c1ccc(Cl)cc1 [Compound 25, 4-Benzyloxy-4′-chlorochalcone]",25.6,4.4,62.9,–,–,–,–,–
"O=C1C(=Cc2ccccc2)C(=O)c2ccccc21 [Compound 8, 2-(Benzylidene)-1,3-indanedione]",91.1,14,34,–,–,–,–,–
"O=C(/C=C/c1ccccc1)/C=C/c1ccccc1 [Compound 3, 1,5-Diphenyl-1E,4E-pentadien-3-one]",79.3,96.8,96.8,–,–,–,–,–
"O=C1C(=Cc2c(Cl)cccc2Cl)CCCC1=Cc1c(Cl)cccc1Cl [Compound 76, 2,6-Bis(2,6-dichlorobenzylidene)cyclohexanone]",8.4,29.8,27.1,–,–,–,–,–
"O=c1cc(-c2ccccc2)oc2ccccc12 [Compound 14, Flavone, reference compound]",19.3,26.3,46.7,–,–,–,–,–
"O=C(/C=C/c1ccco1)/C=C/c1ccco1 [Compound 74, 1,5-Di(2-furyl)-1E,4E-pentadien-3-one]",0,9.3,56.5,–,–,–,–,–
"O=C1C(=Cc2ccccc2)CCCC1=Cc1ccccc1 [Compound 75, 2,6-Di(benzylidene)cyclohexanone]",–,91.3,92.8,–,–,–,–,97.4
"O=C(C=Cc1ccc2ccccc2c1)c1ccc2ccccc2c1 [Compound 60, 1,3-Di(2-naphthyl)propenone]",–,–,–,–,13.2,20.3,27.1,–
"O=C1C(=Cc2cccc3ccccc23)CCc2ccccc21 [Compound 70, 2-(1-Naphthylidene)tetralone]",–,–,–,18.7,15.9,23.6,–,–
"COc1ccc(/C=C/C(=O)c2ccc(OC)cc2)cc1 [Compound 2, 4,4′-Dimethoxychalcone]",29.1,63.4,85.2,–,–,–,–,–
"O=C(/C=C/c1c(F)c(F)c(F)c(F)c1F)c1ccccc1 [Compound 35, 2,3,4,5,6-Pentafluorochalcone]",0,0,0,–,–,–,–,–

Compound,inhibition at 1 µg/mL [%],inhibition at 3 µg/mL [%],inhibition at 6 µg/mL [%],Percent Inhibition at a Specified Density (μg/ml): 1 [%],Percent Inhibition at a Specified Density (μg/ml): 3 [%],Percent Inhibition at a Specified Density (μg/ml): 6 [%],Percent Inhibition at a Specified Density (μg/ml): 9 [%],inhibition at 9 µg/mL [%]
"O=C(/C=C/c1c(Cl)cccc1Cl)c1ccccc1 [Compound 31, 2,6-Dichlorochalcone]",–,92.9,97.5,–,–,–,–,97.9
"N#Cc1coc2c(Cl)cc(Cl)cc2c1=O [Compound 16, 6,8-Dichloro-3-cyanochromone, reference compound]",15.2,0,0,–,–,–,–,–
"O=C(/C=C/c1ccccc1)c1c(F)c(F)c(F)c(F)c1F [Compound 36, 2′,3′,4′,5′,6′-Pentafluorochalcone]",6.6,55.6,88.7,–,–,–,–,–
"O=C(C=Cc1cccc2ccccc12)c1cccc2ccccc12 [Compound 65, 1,3-Di(1-naphthyl)propenone]",–,–,–,12.0,55.5,60.3,–,–
"O=C(C=Cc1ccc2ccccc2c1)c1cccc2ccccc12 [Compound 64, 1-(1-Naphthyl)-3-(2-naphthyl)propenone]",–,–,–,0.0,22.4,52.0,–,–
"O=C(/C=C/c1c(Cl)cccc1Cl)/C=C/c1c(Cl)cccc1Cl [Compound 73, 1,5-Bis(2,6-dichlorophenyl)-1E,4E-pentadien-3-one]",60.7,87.1,90.4,–,–,–,–,–
"CC(=O)c1cc2ccccc2oc1=O [Compound 13, 3-Acetylcoumarin, reference compound]",26,4.9,13,–,–,–,–,–
"COc1cccc(OC)c1/C=C/C(=O)c1c(OC)cccc1OC [Compound 37, 2,2′,6,6′-Tetramethoxychalcone]",36.2,49.2,39.2,–,–,–,–,–
"O=C(O)C=Cc1ccc(Br)cc1 [Compound 11, para-Bromocinnamic Acid, reference compound]",18.2,3.5,0,–,–,–,–,–
"O=C(C=Cc1ccc2ccccc2c1)c1ccccc1 [Compound 62, 3-(2-Naphthyl)-1-phenylpropenone]",–,–,–,–,29.5,44.3,69.1,–
"Cc1ccc(/C=C/C(=O)c2ccc(C)cc2)cc1 [Compound 20, 4,4′-Dimethylchalcone]",36.6,67.3,89.5,–,–,–,–,–
"COc1cccc(OC)c1C(=O)/C=C/c1ccccc1 [Compound 38, 2′,6′-Dimethoxychalcone]",25.8,39.8,63.5,–,–,–,–,–
"O=C(C=Cc1ccc[nH]1)c1ccccc1 [Compound 50, 1-Phenyl-3-(2-pyrrolyl)propenone]",–,–,–,19.0,21.5,0.0,–,–
"O=C(/C=C/c1c(F)c(F)c(F)c(F)c1F)c1c(F)c(F)c(F)c(F)c1F [Compound 34, 2,2′,3,3′,4,4′,5,5′,6,6′-Decafluorochalcone]",31.1,88.6,88.6,–,–,–,–,–
"O=C(C=Cc1cccc2ccccc12)c1ccc2ccccc2c1 [Compound 63, 1-(2-Naphthyl)-3-(1-naphthyl)propenone]",–,–,–,0.0,24.9,50.3,–,–
"O=C1CCCCC1=Cc1ccccc1 [Compound 7, 2-(Benzylidene)cyclohexanone]",23,29.5,72.4,–,–,–,–,–
"Cc1ccc(C(=O)/C=C/c2ccc(C(C)C)cc2)cc1 [Compound 26, 4-Isopropyl-4′-methylchalcone]",19.5,14.2,59.2,–,–,–,–,–
"O=C(C=Cc1ccccc1)c1c2ccccc2cc2ccccc12 [Compound 51, 1-(9-Anthryl)-3-phenylpropenone]",–,–,–,25.5,46.4,69.0,–,–
"CC(=O)C(=Cc1ccccc1)C(C)=O [Compound 9, 3-Benzylidene-2,4-pentanedione]",48.3,72,82.7,–,–,–,–,–
"Cc1ccc(C(=O)/C=C/c2ccc(Cl)cc2)cc1 [Compound 30, 4-Chloro-4′-methylchalcone]",22.3,24.5,46.5,–,–,–,–,–
